Results taken from ChEMBL document CHEMBL5053510, “Discovery of AS-1763: A Potent, Selective, Noncovalent, and Orally Available Inhibitor of Bruton's Tyrosine Kinase” (J Med Chem, 2021).

Molecular target: Tyrosine-protein kinase BTK (Homo sapiens, UniProt Q06187)
Assay: Inhibition of human BTK-A using phosphorylated substrate in presence of ATP by microplate reader assay

Tyrosine-protein kinase BTK, sequence (Q06187 whole entry): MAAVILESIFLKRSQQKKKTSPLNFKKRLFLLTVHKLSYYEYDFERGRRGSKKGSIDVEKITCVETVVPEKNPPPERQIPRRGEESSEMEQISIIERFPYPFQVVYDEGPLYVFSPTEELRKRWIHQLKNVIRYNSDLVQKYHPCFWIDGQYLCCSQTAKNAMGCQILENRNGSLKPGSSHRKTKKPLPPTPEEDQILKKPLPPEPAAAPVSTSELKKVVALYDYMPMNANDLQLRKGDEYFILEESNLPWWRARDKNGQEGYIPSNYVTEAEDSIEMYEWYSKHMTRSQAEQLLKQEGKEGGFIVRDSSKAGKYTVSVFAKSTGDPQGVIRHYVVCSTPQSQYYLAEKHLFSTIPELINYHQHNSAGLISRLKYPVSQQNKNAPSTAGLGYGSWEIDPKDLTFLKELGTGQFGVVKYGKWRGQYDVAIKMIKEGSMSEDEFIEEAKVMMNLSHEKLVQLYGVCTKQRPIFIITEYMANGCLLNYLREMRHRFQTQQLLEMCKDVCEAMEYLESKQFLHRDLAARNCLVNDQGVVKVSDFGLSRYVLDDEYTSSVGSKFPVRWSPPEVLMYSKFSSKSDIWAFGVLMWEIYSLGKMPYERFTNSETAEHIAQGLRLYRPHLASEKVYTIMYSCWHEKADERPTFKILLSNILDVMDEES

IC50: 14 nM
Compound: Nc1nc(-c2cccc(-n3ccc4cc(C5CC5)cc(F)c4c3=O)c2CO)c2cc(-c3ccccc3)[nH]c2n1
